In ChEMBL document CHEMBL1909046, “DrugMatrix in vitro pharmacology data”:

Experiments:
Mu-type opioid receptor = Mu-type opioid receptor (Homo sapiens, UniProt P35372); assay: DRUGMATRIX: Opiate mu (OP3, MOP) radioligand binding (ligand: [3H] Diprenorphine); format: cell membranes, CHO-K1, Membrane; conditions: Not Active = under 50% inhibition at 10 µM
D(1A) dopamine receptor = D(1A) dopamine receptor (Homo sapiens, UniProt P21728); assay: DRUGMATRIX: Dopamine D1 radioligand binding (ligand: [3H] SCH-23390); format: cell membranes, CHO, Membrane; conditions: cho; Not Active = under 50% inhibition at 10 µM
Cytochrome P450 2D6 = Cytochrome P450 2D6 (Homo sapiens, UniProt P10635); conditions: bti-tn-5b1-4; note: in other assays of this panel Not Active means under 50% inhibition at 10 µM
[1] = DRUGMATRIX: Imidazoline I2, Central radioligand binding (ligand: [3H] Idazoxan); format: cell membranes, Rattus norvegicus, Wistar, Cerebral cortex, Membrane; conditions: Not Active = under 50% inhibition at 10 µM
[2] = DRUGMATRIX: Platelet-Derived Growth Factor (PDGF) radioligand binding (ligand: [125I] PDGF); format: cell-based; conditions: nih3t3; Not Active = under 50% inhibition at 10 µM
[3] = DRUGMATRIX: Atrial Natriuretic Factor (ANF) radioligand binding (ligand: [125I] ANF (rat)); format: cell membranes, Cavia porcellus, Dunkin-Hartley, Adrenal gland, Membrane; conditions: Not Active = under 50% inhibition at 10 µM
[4] = biological target: Sodium-dependent noradrenaline transporter (Homo sapiens, UniProt P23975); assay: DRUGMATRIX: Norepinephrine Transporter radioligand binding (ligand: [125I] RTI-55); format: cell membranes, MDCK, Membrane; conditions: mdck; Not Active = under 50% inhibition at 10 µM
Estrogen receptor = biological target: T1, Estrogen receptor (Homo sapiens, UniProt P03372); conditions: sf9; note: in other assays of this panel Not Active means under 50% inhibition at 10 µM
T1 sequence (P03372 whole entry): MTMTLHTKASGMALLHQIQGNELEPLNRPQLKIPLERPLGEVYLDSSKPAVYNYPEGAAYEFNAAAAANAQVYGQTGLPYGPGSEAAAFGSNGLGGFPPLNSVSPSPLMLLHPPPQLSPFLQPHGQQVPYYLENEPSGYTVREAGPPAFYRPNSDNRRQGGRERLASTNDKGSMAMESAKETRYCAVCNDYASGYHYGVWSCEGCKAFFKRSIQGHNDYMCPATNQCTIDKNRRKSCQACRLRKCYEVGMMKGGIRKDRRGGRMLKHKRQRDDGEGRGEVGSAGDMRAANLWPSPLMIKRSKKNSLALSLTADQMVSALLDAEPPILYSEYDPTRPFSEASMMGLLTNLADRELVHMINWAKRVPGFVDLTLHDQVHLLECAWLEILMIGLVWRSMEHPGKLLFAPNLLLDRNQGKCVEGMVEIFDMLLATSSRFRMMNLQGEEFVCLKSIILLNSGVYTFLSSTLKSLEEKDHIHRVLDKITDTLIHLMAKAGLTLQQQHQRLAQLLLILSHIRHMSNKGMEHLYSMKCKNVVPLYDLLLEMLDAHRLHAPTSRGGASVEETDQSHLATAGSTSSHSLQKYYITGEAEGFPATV

Chain of Mu-type opioid receptor (P35372 whole entry): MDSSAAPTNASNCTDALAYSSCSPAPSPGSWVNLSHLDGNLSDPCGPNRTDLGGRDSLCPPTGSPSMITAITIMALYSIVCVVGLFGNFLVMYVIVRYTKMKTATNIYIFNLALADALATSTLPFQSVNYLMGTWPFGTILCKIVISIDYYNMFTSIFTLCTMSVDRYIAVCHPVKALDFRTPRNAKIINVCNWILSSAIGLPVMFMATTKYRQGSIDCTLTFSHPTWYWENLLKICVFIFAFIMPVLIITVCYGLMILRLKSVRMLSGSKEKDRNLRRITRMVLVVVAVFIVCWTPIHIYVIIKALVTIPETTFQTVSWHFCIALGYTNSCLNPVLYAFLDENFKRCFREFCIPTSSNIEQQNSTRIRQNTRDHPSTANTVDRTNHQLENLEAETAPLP
Chain of D(1A) dopamine receptor (P21728 whole entry): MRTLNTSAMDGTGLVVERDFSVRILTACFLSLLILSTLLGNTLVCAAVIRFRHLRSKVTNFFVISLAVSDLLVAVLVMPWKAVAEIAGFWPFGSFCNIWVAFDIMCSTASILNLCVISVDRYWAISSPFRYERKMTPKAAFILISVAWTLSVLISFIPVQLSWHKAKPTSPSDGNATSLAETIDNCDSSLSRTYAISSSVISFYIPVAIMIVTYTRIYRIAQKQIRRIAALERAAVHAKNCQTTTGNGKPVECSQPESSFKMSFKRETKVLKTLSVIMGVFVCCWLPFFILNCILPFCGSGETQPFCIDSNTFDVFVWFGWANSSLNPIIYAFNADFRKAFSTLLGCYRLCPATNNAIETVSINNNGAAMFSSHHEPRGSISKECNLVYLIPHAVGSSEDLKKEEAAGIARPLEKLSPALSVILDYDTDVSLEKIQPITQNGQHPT
Chain of Sodium-dependent noradrenaline transporter (P23975 whole entry): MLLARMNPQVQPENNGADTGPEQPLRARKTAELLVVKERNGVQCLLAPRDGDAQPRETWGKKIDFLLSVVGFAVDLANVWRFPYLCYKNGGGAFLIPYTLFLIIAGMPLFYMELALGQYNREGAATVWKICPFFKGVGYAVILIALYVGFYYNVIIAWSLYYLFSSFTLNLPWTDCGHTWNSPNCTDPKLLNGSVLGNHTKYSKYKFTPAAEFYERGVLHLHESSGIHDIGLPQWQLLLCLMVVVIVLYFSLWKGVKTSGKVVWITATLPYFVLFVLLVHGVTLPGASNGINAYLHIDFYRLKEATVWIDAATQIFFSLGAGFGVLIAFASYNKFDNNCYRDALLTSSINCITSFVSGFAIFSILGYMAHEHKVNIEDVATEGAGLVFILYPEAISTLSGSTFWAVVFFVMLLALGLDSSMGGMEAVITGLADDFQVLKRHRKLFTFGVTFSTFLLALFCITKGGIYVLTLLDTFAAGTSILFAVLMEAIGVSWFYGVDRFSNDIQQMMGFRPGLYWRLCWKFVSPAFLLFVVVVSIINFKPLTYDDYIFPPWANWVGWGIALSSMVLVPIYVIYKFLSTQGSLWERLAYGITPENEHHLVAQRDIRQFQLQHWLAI
Chain of Cytochrome P450 2D6 (P10635 whole entry): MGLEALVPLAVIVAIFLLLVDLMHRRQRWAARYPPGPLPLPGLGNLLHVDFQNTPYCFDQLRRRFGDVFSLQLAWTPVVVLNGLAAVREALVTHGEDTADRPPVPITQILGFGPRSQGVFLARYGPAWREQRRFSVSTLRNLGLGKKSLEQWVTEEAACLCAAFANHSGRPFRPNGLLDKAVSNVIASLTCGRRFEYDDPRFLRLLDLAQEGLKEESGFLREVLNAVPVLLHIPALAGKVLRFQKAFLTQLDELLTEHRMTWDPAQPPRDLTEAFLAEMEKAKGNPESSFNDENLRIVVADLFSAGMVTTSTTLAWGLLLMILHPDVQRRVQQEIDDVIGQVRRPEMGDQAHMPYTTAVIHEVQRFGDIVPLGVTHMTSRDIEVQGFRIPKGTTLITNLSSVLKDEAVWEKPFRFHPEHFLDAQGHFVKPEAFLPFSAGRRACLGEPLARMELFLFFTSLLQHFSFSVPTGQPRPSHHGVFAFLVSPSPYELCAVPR

Row | Compound | IC50 (Mu-type opioid receptor; cho-k1) | IC50 (D(1A) dopamine receptor) | IC50 (Cytochrome P450 2D6) | Ki (Cytochrome P450 2D6) | IC50 [1] | Ki [1] | IC50 [2] | Ki [2] | IC50 [3] | Ki [3] | IC50 [4] | IC50 (Estrogen receptor) | Ki (Mu-type opioid receptor) [nM] | IC50 (Mu-type opioid receptor; read-out: IC50) [µM] | IC50 ([1]; read-out: IC50) [nM] | Ki ([1]; read-out: Ki) [nM] | Ki (D(1A) dopamine receptor) | Ki [4] | Ki (Estrogen receptor)
1 | CCCCC(=O)N(Cc1ccc(-c2ccccc2-c2nnn[nH]2)cc1)[C@H](C(=O)O)C(C)C | Not Active | Not Active | Not Active | Not Active | Not Active | Not Active | Not Active | Not Active | Not Active | Not Active | Not Active | Not Active |  |  |  |  |  |  | 
2 | O=C(O)COc1ccc(C(=O)c2cccs2)c(Cl)c1Cl | Not Active | Not Active | Not Active | Not Active | Not Active | Not Active | Not Active | Not Active | Not Active | Not Active | Not Active | Not Active |  |  |  |  |  |  | 
3 | CN1[C@@H]2CC[C@H]1C[C@@H](OC(c1ccccc1)c1ccccc1)C2 [BENZTROPINE] | Not Active |  | Not Active | Not Active |  |  |  |  |  |  |  | Not Active |  |  |  |  |  |  | 
4 | C[C@@](Cc1ccc(O)c(O)c1)(NN)C(=O)O.O [CARBIDOPA] | Not Active | Not Active | Not Active | Not Active | Not Active | Not Active | Not Active | Not Active | Not Active | Not Active | Not Active |  |  |  |  |  |  |  | 
5 | CN1CCN(C2=Nc3cc(Cl)ccc3Nc3ccccc32)CC1 [CLOZAPINE] | Not Active |  | Not Active | Not Active |  |  |  |  |  |  |  | Not Active |  |  |  |  |  |  | 
6 | CC(C)NC[C@@H](O)COc1cccc2ccccc12 [DEXPROPRANOLOL] | Not Active |  | Not Active | Not Active |  |  |  |  |  |  |  |  |  |  |  |  |  |  | 
7 | CC(C)NC[C@H](O)COc1cccc2ccccc12 [LEVOPROPRANOLOL] | Not Active |  | Not Active | Not Active |  |  |  |  |  |  |  |  |  |  |  |  |  |  | 
8 | O=C(O)CCCCC1CCSS1 (stereo not drawn) [LIPOIC ACID, ALPHA] | Not Active | Not Active | Not Active | Not Active | Not Active | Not Active | Not Active | Not Active | Not Active | Not Active | Not Active | Not Active |  |  |  |  |  |  | 
9 | CN(C)C(=O)C(CCN1CCC(O)(c2ccc(Cl)cc2)CC1)(c1ccccc1)c1ccccc1 [LOPERAMIDE] |  |  |  |  |  |  |  |  |  |  |  | Not Active |  |  |  |  |  |  | 
10 | Clc1ccc(COC(Cn2ccnc2)c2ccc(Cl)cc2Cl)c(Cl)c1 (configuration not stated) [MICONAZOLE] |  |  |  |  |  |  |  |  |  |  |  | Not Active | 2460 | 6.06 |  |  |  |  | 
11 | Oc1ccc2c3c1O[C@H]1[C@@H](O)CC[C@@]4(O)[C@@H](C2)N(CC2CCC2)CC[C@]314 [NALBUPHINE] |  |  |  |  |  |  |  |  |  |  | Not Active | Not Active |  |  |  |  |  |  | 
12 | C[C@]12C=CC(=O)C=C1CC[C@@H]1[C@@H]2C(=O)C[C@@]2(C)[C@H]1CC[C@]2(O)C(=O)CO [PREDNISONE] | Not Active | Not Active |  |  | Not Active | Not Active | Not Active | Not Active | Not Active | Not Active | Not Active | Not Active |  |  |  |  |  |  | 
13 | OCCOCCN1CCN(C2=Nc3ccccc3Sc3ccccc32)CC1 [QUETIAPINE] | Not Active |  | Not Active | Not Active |  |  |  |  |  |  | Not Active |  |  |  |  |  |  |  | 
14 | COC(=O)[C@H]1[C@H]2C[C@@H]3c4[nH]c5cc(OC)ccc5c4CCN3C[C@H]2C[C@@H](OC(=O)c2cc(OC)c(OC)c(OC)c2)[C@@H]1OC [RESERPINE] |  | Not Active | Not Active | Not Active | Not Active | Not Active | Not Active | Not Active | Not Active | Not Active | Not Active |  | 1690 | 4.15 |  |  |  |  | 
15 | O=C(O)c1ccccc1O [SALICYLIC ACID] |  | Not Active | Not Active | Not Active | Not Active | Not Active | Not Active | Not Active | Not Active | Not Active | Not Active | Not Active |  |  |  |  |  |  | 
16 | C[S+]([O-])c1ccc(-c2nc(-c3ccncc3)c(-c3ccc(F)cc3)[nH]2)cc1 (configuration not stated) [SB-203580] | Not Active |  |  |  |  |  |  |  |  |  | Not Active | Not Active |  |  |  |  |  |  | 
17 | CC1CCC(NC(=O)N(CCCl)N=O)CC1 (configuration not stated) [SEMUSTINE] | Not Active | Not Active | Not Active | Not Active |  |  | Not Active | Not Active | Not Active | Not Active | Not Active | Not Active |  |  | 1620 | 1080 |  |  | 
18 | O=C1C[C@@H]2OCC=C3CN4CC[C@]56c7ccccc7N1[C@H]5[C@H]2[C@H]3C[C@H]46 [STRYCHNINE] |  | Not Active | Not Active | Not Active | Not Active | Not Active | Not Active | Not Active | Not Active | Not Active | Not Active |  |  |  |  |  |  |  | 
19 | C[N+](C)(C)CCOC(=O)CCC(=O)OCC[N+](C)(C)C.[Cl-].[Cl-] [SUCCINYLCHOLINE CHLORIDE] | Not Active | Not Active | Not Active | Not Active | Not Active | Not Active | Not Active | Not Active | Not Active | Not Active | Not Active | Not Active |  |  |  |  |  |  | 
20 | Nc1ccc(S(=O)(=O)NC(=O)c2ccccc2)cc1 [SULFABENZAMIDE] | Not Active | Not Active | Not Active | Not Active | Not Active | Not Active | Not Active | Not Active | Not Active | Not Active | Not Active | Not Active |  |  |  |  |  |  | 
21 | CCCCCCCCNC(C)C(O)c1ccc(SC(C)C)cc1 (configuration not stated) [SULOCTIDIL] | Not Active | Not Active | Not Active | Not Active | Not Active | Not Active |  |  |  |  |  | Not Active |  |  |  |  |  |  | 
22 | O=c1[nH]c(=O)n(C2CCCO2)cc1F (configuration not stated) [TEGAFUR] | Not Active | Not Active | Not Active | Not Active | Not Active | Not Active | Not Active | Not Active | Not Active | Not Active | Not Active |  |  |  |  |  |  |  | 
23 | CC(=N)S [THIOACETAMIDE] | Not Active | Not Active | Not Active | Not Active | Not Active | Not Active | Not Active | Not Active | Not Active | Not Active | Not Active |  |  |  |  |  |  |  | 
24 | Cc1ccc(C(=O)c2ccc(CC(=O)O)n2C)cc1 [TOLMETIN] | Not Active | Not Active | Not Active | Not Active | Not Active | Not Active | Not Active | Not Active | Not Active | Not Active | Not Active | Not Active |  |  |  |  |  |  | 
25 | CC(=O)OCC(COC(C)=O)OC(C)=O [TRIACETIN] | Not Active | Not Active | Not Active | Not Active | Not Active | Not Active | Not Active | Not Active | Not Active | Not Active | Not Active |  |  |  |  |  |  |  | 
26 | CN1CCN(CCCN2c3ccccc3Sc3ccc(C(F)(F)F)cc32)CC1 [TRIFLUOPERAZINE] | Not Active | Not Active |  |  | Not Active | Not Active | Not Active | Not Active | Not Active | Not Active | Not Active |  |  |  |  |  |  |  | 
27 | TRANSPLATIN |  | Not Active | Not Active | Not Active | Not Active | Not Active | Not Active | Not Active | Not Active | Not Active | Not Active | Not Active |  |  |  |  | Not Active | Not Active | Not Active
28 | ZIRCONIUM(IV) CHLORIDE |  | Not Active | Not Active | Not Active | Not Active | Not Active | Not Active | Not Active | Not Active | Not Active | Not Active | Not Active |  |  |  |  | Not Active | Not Active | Not Active
